For 38 compounds, CC50 and IC50 results are on record in ChEMBL document CHEMBL1759988, “Isatin-β-thiosemicarbazones as potent herpes simplex virus inhibitors” (Bioorg Med Chem Lett, 2011).

Each structure is given as a SMILES string.

Data set [1] can be described thus: Cytotoxicity against human RD cells. The data set is classed as cell-based.
The subject of another data set is Human alphaherpesvirus 2. The experiment in a line: Antiviral activity against HSV2 by plaque reduction assay. It is filed as functional, organism-based. In general terms: Plaque reduction counts the foci of infection that form in a cell layer.
A further data set has as its system Human alphaherpesvirus 1. The experiment in a line: Antiviral activity against HSV1 by plaque reduction assay. It is filed as functional, organism-based.

For the compound `O=C1Nc2ccccc2/C1=N/NC(=S)Nc1ccccc1`, the CC50 (in general, the concentration giving 50% cytotoxicity) in data set [1] was above 25 µM. Moreover, the results for the IC50 in the data set on Human alphaherpesvirus 2 and in the data set on Human alphaherpesvirus 1 were above 25 µM and 2.97 µM, respectively.

In turn, `Cc1ccccc1NC(=S)N/N=C1\C(=O)Nc2ccccc21` showed a CC50 in data set [1] above 25 µM. For the same compound, the IC50 in the data set with Human alphaherpesvirus 2 and in the data set with Human alphaherpesvirus 1 was above 25 µM each time.

For `Cc1cccc(NC(=S)NNC2=c3ccccc3=NC2=O)c1`, the CC50 in data set [1] is above 25 µM. Further, the IC50 (commonly the concentration that inhibits the measured activity by half) with Human alphaherpesvirus 2 is above 25 µM; with Human alphaherpesvirus 1, 3.84 µM.

In data set [1], `Cc1ccc(NC(=S)N/N=C2\C(=O)Nc3ccccc32)cc1` gave a CC50 above 25 µM. In addition, the IC50 in the data set with Human alphaherpesvirus 2 and in the data set with Human alphaherpesvirus 1 was above 25 µM each time.

`COc1ccccc1NC(=S)N/N=C1\C(=O)Nc2ccccc21`: the CC50 in data set [1] is above 25 µM. Further, the IC50 with Human alphaherpesvirus 2 and in the data set on Human alphaherpesvirus 1 was above 25 µM throughout.

For `COc1cccc(NC(=S)N/N=C2\C(=O)Nc3ccccc32)c1`, the CC50 in data set [1] was above 25 µM. Besides, the values for the IC50 in the data set with Human alphaherpesvirus 2 and with Human alphaherpesvirus 1 were above 25 µM and 2.64 µM, respectively.

Take `O=C1Nc2ccccc2/C1=N/NC(=S)Nc1ccc(F)cc1`: in data set [1], the CC50 was above 25 µM. Besides, the IC50 in the data set with Human alphaherpesvirus 2 and in the data set with Human alphaherpesvirus 1 was above 25 µM in each case.

Take `O=C1Nc2ccccc2/C1=N/NC(=S)Nc1ccccc1Cl`: in data set [1], the CC50 is above 25 µM. Moreover, the IC50 with Human alphaherpesvirus 2 and in the data set on Human alphaherpesvirus 1 was above 25 µM throughout.

Consider `O=C1Nc2ccccc2/C1=N/NC(=S)Nc1cccc(Cl)c1`, for which the CC50 in data set [1] is above 25 µM. The IC50 in the data set on Human alphaherpesvirus 2 and with Human alphaherpesvirus 1 was above 25 µM in each case.

As for `O=C1Nc2ccccc2/C1=N/NC(=S)Nc1ccc(Cl)cc1`, the CC50 in data set [1] was above 25 µM. Moreover, the IC50 is above 25 µM in the data set on Human alphaherpesvirus 2 and 2.69 µM with Human alphaherpesvirus 1.

`O=C1Nc2ccccc2/C1=N/NC(=S)Nc1ccc(Br)cc1`: in data set [1], the CC50 is above 25 µM. The IC50 in the data set on Human alphaherpesvirus 2 was above 25 µM; in the data set on Human alphaherpesvirus 1, 3.29 µM.

`O=C1Nc2ccccc2/C1=N/NC(=S)Nc1ccc(-n2cccn2)cc1` registered a CC50 in data set [1] above 25 µM. In addition, the IC50 was above 25 µM in the data set on Human alphaherpesvirus 2 and 6.21 µM in the data set on Human alphaherpesvirus 1.

In the case of `O=C1Nc2ccccc2/C1=N/NC(=S)Nc1ccc(N2CCOCC2)cc1`, in data set [1], the CC50 is above 25 µM. The IC50 in the data set with Human alphaherpesvirus 2 and with Human alphaherpesvirus 1 was above 25 µM in each case.

Compound `O=C(N/N=C1\C(=O)Nc2ccccc21)Nc1ccccc1` showed a CC50 in data set [1] above 25 µM. Also, the IC50 in the data set with Human alphaherpesvirus 2 and in the data set on Human alphaherpesvirus 1 was above 25 µM throughout.

`Cc1cccc(NC(=O)N/N=C2\C(=O)Nc3ccccc32)c1`: the CC50 in data set [1] was above 25 µM. The half-maximal inhibitory concentration (IC50) in the data set on Human alphaherpesvirus 2 and with Human alphaherpesvirus 1 was above 25 µM each time.

As for `Cc1ccc(NC(=O)N/N=C2\C(=O)Nc3ccccc32)cc1`, the CC50 in data set [1] was above 25 µM. The IC50 with Human alphaherpesvirus 2 and with Human alphaherpesvirus 1 was above 25 µM throughout.

`COc1cccc(NC(=O)N/N=C2\C(=O)Nc3ccccc32)c1` gave a CC50 in data set [1] above 25 µM. Besides, the IC50 in the data set on Human alphaherpesvirus 2 and in the data set with Human alphaherpesvirus 1 was above 25 µM each time.

`O=C1Nc2ccc(Cl)cc2/C1=N/NC(=S)Nc1ccccc1` registered a CC50 in data set [1] above 25 µM. The IC50 in the data set on Human alphaherpesvirus 2 and in the data set with Human alphaherpesvirus 1 was above 25 µM each time.

Consider `O=C1Nc2ccc(Br)cc2/C1=N/NC(=S)Nc1ccccc1`, for which, in data set [1], the CC50 is above 25 µM. The IC50 in the data set on Human alphaherpesvirus 2 and in the data set on Human alphaherpesvirus 1 was above 25 µM each time.

`COc1ccc2c(c1)/C(=N/NC(=S)Nc1ccccc1)C(=O)N2` yielded a CC50 in data set [1] above 25 µM. Besides, the IC50 in the data set with Human alphaherpesvirus 2 was above 25 µM; with Human alphaherpesvirus 1 it was 5.01 µM.

`CN1C(=O)/C(=N\NC(=S)Nc2ccccc2)c2ccccc21`: the CC50 in data set [1] was above 25 µM. For the same compound, the IC50 in the data set on Human alphaherpesvirus 2 and in the data set on Human alphaherpesvirus 1 was above 25 µM throughout.

The compound `CCN1C(=O)/C(=N\NC(=S)Nc2ccccc2)c2ccccc21` showed a CC50 in data set [1] above 25 µM. The IC50 in the data set with Human alphaherpesvirus 2 and in the data set on Human alphaherpesvirus 1 was above 25 µM in each case.

On to `O=C1/C(=N\NC(=S)Nc2ccccc2)c2ccccc2N1c1ccccc1`, for which, in data set [1], the CC50 was above 25 µM. Further, the IC50 in the data set with Human alphaherpesvirus 2 and in the data set with Human alphaherpesvirus 1 was above 25 µM each time.

The compound `O=C1/C(=N\NC(=S)Nc2ccccc2)c2ccccc2N1Cc1ccccc1` came in with a CC50 in data set [1] above 25 µM. Further, the IC50 in the data set on Human alphaherpesvirus 2 and with Human alphaherpesvirus 1 was above 25 µM each time.

`CCN(CC)C(=S)N/N=C1\C(=O)Nc2ccccc21` yielded a CC50 in data set [1] above 25 µM. Besides, the values for the IC50 in the data set on Human alphaherpesvirus 2 and in the data set on Human alphaherpesvirus 1 were 1.54 µM and above 25 µM, respectively.

With `O=C1Nc2ccccc2/C1=N/NC(=S)N1CCCC1`, in data set [1], the CC50 is above 25 µM. Besides, the IC50 with Human alphaherpesvirus 2 was 5.8 µM; in the data set on Human alphaherpesvirus 1, above 25 µM.

In the case of `O=C1Nc2ccccc2/C1=N/NC(=S)N1CCCCC1`, the CC50 in data set [1] was above 25 µM. The figures for the IC50 with Human alphaherpesvirus 2 and in the data set on Human alphaherpesvirus 1 were 3.14 µM and above 25 µM, respectively.

For the compound `CNC(=S)N/N=C1\C(=O)Nc2ccccc21`, in data set [1], the CC50 was above 25 µM. Moreover, the IC50 with Human alphaherpesvirus 2 and with Human alphaherpesvirus 1 was above 25 µM in each case.

For `CCNC(=S)N/N=C1\C(=O)Nc2ccccc21`, in data set [1], the CC50 is above 25 µM. The IC50 with Human alphaherpesvirus 2 and in the data set with Human alphaherpesvirus 1 was above 25 µM each time.

In data set [1], `CCCNC(=S)N/N=C1\C(=O)Nc2ccccc21` gave a CC50 above 25 µM. The IC50 in the data set with Human alphaherpesvirus 2 and with Human alphaherpesvirus 1 was above 25 µM throughout.

Turning to `O=C1Nc2ccc(F)cc2/C1=N/NC(=S)Nc1ccccc1`, in data set [1], the CC50 is above 25 µM. Also, the IC50 in the data set on Human alphaherpesvirus 2 and in the data set on Human alphaherpesvirus 1 was above 25 µM each time.

As for `O=C1Nc2ccc(OC(F)(F)F)cc2/C1=N/NC(=S)Nc1ccccc1`, the CC50 in data set [1] is above 25 µM. In addition, the values for the IC50 in the data set with Human alphaherpesvirus 2 and in the data set with Human alphaherpesvirus 1 were above 25 µM and 5.9 µM, respectively.

Turning to `COc1ccc(NC(=S)NNC2=c3ccccc3=NC2=O)cc1`, in data set [1], the CC50 is above 25 µM. The figures for the IC50 in the data set with Human alphaherpesvirus 2 and in the data set with Human alphaherpesvirus 1 were above 25 µM and 2.2 µM, respectively.

In turn, `Cc1ccc2c(c1)/C(=N/NC(=S)Nc1ccccc1)C(=O)N2` yielded a CC50 in data set [1] above 25 µM. The IC50 with Human alphaherpesvirus 2 and with Human alphaherpesvirus 1 was above 25 µM throughout.

As to `O=C1Nc2ccccc2/C1=N/NC(=S)N1CCOCC1`, in data set [1], the CC50 was above 25 µM. Besides, the half-inhibitory concentration (IC50) with Human alphaherpesvirus 2 worked out at 2.74 µM; with Human alphaherpesvirus 1, 1.3 µM.

`CN(C)C(=S)N/N=C1/C(=O)Nc2ccccc21` displayed a CC50 in data set [1] above 25 µM. Besides, the IC50 with Human alphaherpesvirus 2 and with Human alphaherpesvirus 1 was above 25 µM throughout.

With `CCCN(CCC)C(=S)N/N=C1/C(=O)Nc2ccccc21`, in data set [1], the CC50 is above 25 µM. The IC50 with Human alphaherpesvirus 2 and in the data set on Human alphaherpesvirus 1 was above 25 µM in each case.

Consider `Nc1nc2c(ncn2COCCO)c(=O)[nH]1` [ACYCLOVIR], for which, in data set [1], the CC50 was above 25 µM. Also, the IC50 in the data set on Human alphaherpesvirus 2 worked out at 1.27 µM; in the data set with Human alphaherpesvirus 1, 0.3 µM.
